In brackets after ≈: the same amount, converted by molar mass. Read-outs that look alike come from different tables or passages of the source.
Assays:
in vitro [1] = experiment: in vitro
in vitro [2] = conditions: human
[3] = system: Escherichia coli ATTC 6739; experiment: Serial microplate dilution MIC, bacteria; assay type: cell-based; conditions: ATTC6739
Method: (§1) The serial microplate dilution method developed by Eloff (1998) was used to determine the minimal inhibitory concentration (MIC) of the crude extracts, fractions and isolated compounds from P. obliquum against several bacterial strains. The antimicrobial activity was determined against the bacterial strains Escherichia coli ATTC 27853, Escherichia coli ATTC 6739, Enterococcus faecalis ATCC 29212, Pseudomonas aeruginosa ATCC 25922, Staphylococcus aureus ATCC 6538, Staphylococcus aureus ATCC 29213, Salmonella typhi ATCC 14028.

[4] = system: Salmonella typhi ATCC 14028; experiment: Serial microplate dilution MIC, bacteria; assay type: cell-based; conditions: Salmonella enterica
Method: as §1

[5] = system: Pseudomonas aeruginosa ATCC 25922; experiment: Serial microplate dilution MIC, bacteria; assay type: cell-based; conditions: ATCC25922
Method: as §1

[6] = system: Escherichia coli ATTC 27853; experiment: Serial microplate dilution MIC, bacteria; assay type: cell-based; conditions: ATTC27853
Method: as §1

[7] = system: Enterococcus faecalis ATCC 29212; experiment: Serial microplate dilution MIC, bacteria; assay type: cell-based; conditions: ATCC29212
Method: as §1

[8] = system: Staphylococcus aureus ATCC 6538; experiment: Serial microplate dilution MIC, bacteria; assay type: cell-based; conditions: ATCC6538
Method: as §1

[9] = system: Staphylococcus aureus ATCC 29213; experiment: Serial microplate dilution MIC, bacteria; assay type: cell-based; conditions: ATCC29213
Method: as §1

[10] = system: Candida albicans standard strain (ATCC 10231) and clinical isolates; experiment: Broth micro-dilution assay, minimal inhibitory concentration (MIC); assay type: cell-based; conditions: for MIC: Candida albicans, read-out: MIC; for Selectivity index (SI): LC50 against mouse fibroblast cells/MIC
[11] = system: bacterial strains (E. coli, E. faecalis, P. aeruginosa, S. aureus, S. typhi); experiment: Antibacterial MIC, summary statements over all bacterial strains tested; assay type: cell-based; conditions: read-out: MIC (bacteria tested, summary)
Method: as §1

[12] = system: Haemonchus contortus (egg); experiment: Egg hatch assay (EHA); assay type: cell-based; conditions: egg of Haemonchus contortus; read-out: Antihelminthic activity EC50 (mg/ml) EDA
Method: (§2) The extract and isolated compound were tested for activity on Haemonchus contortus.

Mycobacterium smegmatis = experiment: Serial microplate dilution MIC, mycobacteria; assay type: cell-based
[13] = system: Haemonchus contortus (larva); experiment: Larval development test (LDT); assay type: cell-based
Method: as §2

Mycobacterium aurum = experiment: Serial microplate dilution MIC, mycobacteria; assay type: cell-based; conditions: Mycolicibacterium aurum
Mycobacterium bovis = experiment: microbe, parasite or virus in culture; assay type: cell-based
Mycobacterium fortuitum = experiment: Serial microplate dilution MIC, mycobacteria; assay type: cell-based
Aspergillus niger = experiment: MIC, plant pathogenic fungi; assay type: cell-based
Method: (§3) The microplate dilution method (Eloff, 1998), with slight modification (Masoko et al., 2005) was used to test the antifungal activity of the crude extracts, fractions and isolated compounds from P. obliquum. Clinical isolates of the four opportunistic fungal strains Aspergillus fumigatus, Candida albicans, Crytococcus neoformans and Candida albicans ATCC 10231 were used to test for antifungal activity.
(§4) The antifungal activity of the crude extracts and the five fractions were also tested against 10 plant pathogenic fungi (Aspergillus niger, Aspergillus parasiticus, Colletotrichum gloeosporioides, Fusarium oxysporum, Penicillium digitum, Penicillium expansum, Penicillium italicum, Penicillium janthinellum, Trichoderma harzianum and Rhizoctonia solani).

Penicillium digitum = experiment: MIC, plant pathogenic fungi; assay type: cell-based
Method: as §3, §4

Penicillium janthinellum = experiment: MIC, plant pathogenic fungi; assay type: cell-based
Method: as §3, §4

Rhizoctonia solani = experiment: MIC, plant pathogenic fungi; assay type: cell-based
Method: as §3, §4

Penicillium italicum = experiment: MIC, plant pathogenic fungi; assay type: cell-based
Method: as §3, §4

Fusarium oxysporum = experiment: MIC, plant pathogenic fungi; assay type: cell-based
Method: as §3, §4

Aspergillus parasiticus = experiment: MIC, plant pathogenic fungi; assay type: cell-based
Method: as §3, §4

Penicillium expansum = experiment: MIC, plant pathogenic fungi; assay type: cell-based
Method: as §3, §4

Trichoderma harzianum = experiment: MIC, plant pathogenic fungi; assay type: cell-based
Method: as §3, §4

[14] = system: Colletotrichum gloeosporioides; experiment: MIC, plant pathogenic fungi; assay type: cell-based
Method: as §3, §4

in vitro [15] = conditions: mouse, LC50 (cytotoxicity)
Text: (§5) The MTT assay was used to determine the cytotoxicity of dried acetone extracts of H. caffrum (leaves); P. obliquum (leaves); R. melanophloeos (leaves) and S. birrea (stem bark) reconstituted in dimethyl sulphoxide (DMSO) against Mouse fibroblast cells (obtained from the Department of Plant Science, Faculty of Natural and Agricultural Sciences, University of Pretoria, South Africa).
(§6) MTT (yellow) is reduced into a formazan (purple) by viable cells. The colour intensity of the formazan produced, which is directly proportional to the number of viable cells, is measured using a spectrophotometer (Mosmann, 1983; Shai, 2007).
(§7) Cells were maintained in minimal essential medium (MEM) (Highveld Biological, South Africa) supplemented with 0.1% gentamicin (Virbac) and 5% foetal calf serum (Adcock-lngram). […] Dried crude plant extracts (100 mg) were reconstituted in 1 ml of DMSO and serial 10-fold dilutions of each extract were prepared in growth medium. The growth medium on sub-confluent monolayer cells grown overnight in microtitre plates was removed and cells were exposed to 200 μl of the extracts at different concentrations and incubated again at 37° C. for 5 days. Viability of cells was determined using the tetrazolium-based colorimetric assay (MTT assay) described by Mossmann (1983). Before the addition of MTT, the extract-containing medium on the cells was replaced with fresh culture medium to exclude reduction of the tetrazolium compound by plant extracts. The assay is based on mitochondrial dehydrogenase activity which is assessed by the reductive cleavage of the tetrazolium salt MTT [3-(4.5-dimethylthiazolyl)2.5-diphenyltetrazolium bromide] due to the succinic dehydrogenase present in living cells to yield a purple formazan dye. The cells were incubated with 30 μl of 5 mg/ml MTT in phosphate-buffered saline (PBS) for four hours. Thereafter, medium was removed and cells washed with PBS. DMSO (50 μl) was added to the cells and absorbance was measured using a Versamax microplate reader at 570 nm. Berberine chloride (Sigma) was used as a positive control, wells containing only cells acted as the negative control and a solvent control was also included. The percentage cell viability following the addition of varying concentrations of the extracts in relation to controls was calculated. The LC50 values were calculated (using SoftMax Pro4.8 Software) as the concentration of plant extracts resulting in 50 percent reduction of absorbance compared to untreated cells. Tests were carried out in quadruplicate and each experiment was repeated three times.

[16] = system: Candida albicans (clinical isolate); experiment: Microplate dilution MIC, opportunistic fungi (Example 9); assay type: cell-based
Text: as §3

Cryptococcus neoformans = experiment: as above; assay type: cell-based
Text: as §3

Aspergillus fumigatus = experiment: as above; assay type: cell-based
Text: as §3

[17] = system: Candida albicans ATCC 10231; experiment: as above; assay type: cell-based; conditions: ATCC10231
Text: as §3

mouse fibroblast cells = conditions: 5 days
Text: as §5, §6, §7

`COc1cccc2c1C(=O)c1c(O)c3c(c(O)c1C2=O)C[C@@](O)(C(=O)CO)C[C@@H]3O[C@H]1C[C@H](N)[C@H](O)[C@H](C)O1` [doxorubicin, reference compound] gave a CC50 (in vitro [1]; monkey) of 2.51 ± 0.203 µM and a CC50 (in vitro [2]) of 0.116 ± 0.0174 µM.

Compound `CC(=O)OCC1=CCc2c(cc(O)c3c(=O)cc(C)oc23)OC1` [Compound 2, 8,11-Dihydro-5-hydroxy-12-hydroxymethyl-2-methyl-4H-pyrano[2,3-g][1]benzoxepin-4-one 12-O-acetate] has an MIC [3] of 80 µg/mL (≈ 253 µM), an MIC [4] of 31.5 µg/mL (≈ 99.6 µM) and an MIC [5] of 31.5 µg/mL (≈ 99.6 µM). For the same compound, the MIC [6] was 80 µg/mL (≈ 253 µM), the MIC [7] was over 250 µg/mL and the MIC [8] was 31.5 µg/mL (≈ 99.6 µM). The MIC [9] was 31.5 µg/mL (≈ 99.6 µM), the MIC ([10]; 12 h, 12 h incubation, C. albicans 1051255) was over 250 µg/mL and the MIC ([10]; 12 h, 12 h incubation, C. albicans 1051604) was over 250 µg/mL. It also gave an MIC ([10]; 12 h, 12 h incubation, C. albicans 1051608) of 8 µg/mL (≈ 25.3 µM), an MIC ([10]; 12 h, 12 h incubation, C. albicans ATCC 10231) of 4 µg/mL (≈ 12.6 µM) and an MIC ([10]; 12 h, 12 h incubation, C. albicans M0824) of over 250 µg/mL. It also gave an MIC ([10]; 12 h, 12 h incubation, C. albicans M0825) of over 250 µg/mL, an MIC ([10]; 12 h, 12 h incubation, C. albicans M0826) of over 250 µg/mL and an MIC ([10]; 24 h, 24 h incubation, C. albicans 1051255) of over 250 µg/mL. The MIC ([10]; 24 h, 24 h incubation, C. albicans 1051604) was over 250 µg/mL, the MIC ([10]; 24 h, 24 h incubation, C. albicans 1051608) was 250 µg/mL (≈ 790 µM) and the MIC ([10]; 24 h, 24 h incubation, C. albicans ATCC 10231) was 4 µg/mL (≈ 12.6 µM). The MIC ([10]; 24 h, 24 h incubation, C. albicans M0824) was over 250 µg/mL, the MIC ([10]; 24 h, 24 h incubation, C. albicans M0825) was over 250 µg/mL and the MIC ([10]; 24 h, 24 h incubation, C. albicans M0826) was over 250 µg/mL. For the same compound, the MIC ([10]; C. albicans ATCC 10231, mean value) was 4 µg/mL (≈ 12.6 µM), the “Selectivity index (SI)” value ([10]; C. albicans 1051255) was under 0.029 and the “Selectivity index (SI)” value ([10]; C. albicans 1051604) was under 0.029. For the same compound, the “Selectivity index (SI)” value ([10]; C. albicans 1051608) was 0.029, the “Selectivity index (SI)” value ([10]; C. albicans ATCC 10231) was 1.808 and the “Selectivity index (SI)” value ([10]; C. albicans M0824) was under 0.029. For the same compound, the “Selectivity index (SI)” value ([10]; C. albicans M0825) was under 0.029, the “Selectivity index (SI)” value ([10]; C. albicans M0826) was under 0.029 and the “Selectivity index (SI) Average” value ([10]; average over ATCC 10231 and clinical isolates) was 0.283. The MIC [11] was 31.5 µg/mL (≈ 99.6 µM), the EC50 [12] was 0.224 ± 0.0286 mg/mL (≈ 707 µM) and the MIC (Mycobacterium smegmatis; Mycobacterium smegmatis) was 16 µg/mL (≈ 50.6 µM). It also gave an MIC (Mycobacterium smegmatis; Mycolicibacterium smegmatis, M. smegmatis, read-out: MIC) of 16 µg/mL (≈ 50.6 µM), an EC50 ([13]; Haemonchus contortus larvae, read-out: EC50 against larvae) of 0.0956 mg/mL (≈ 302 µM) and an EC50 ([13]; larva of Haemonchus contortus, read-out: Antihelminthic activity EC50 (mg/ml) LDT) of 0.0956 ± 0.002 mg/mL (≈ 302 µM). The MIC (Mycobacterium aurum) was 125 µg/mL (≈ 395 µM), the MIC (Mycobacterium bovis; Mycobacterium bovis) was 31.5 µg/mL (≈ 99.6 µM) and the MIC (Mycobacterium bovis; Mycobacterium tuberculosis variant bovis) was 31.5 µg/mL (≈ 99.6 µM). For the same compound, the MIC (Mycobacterium fortuitum; Mycobacterium fortuitum) was 8 µg/mL (≈ 25.3 µM), the MIC (Mycobacterium fortuitum; Mycolicibacterium fortuitum, M. fortuitum, read-out: MIC) was 8 µg/mL (≈ 25.3 µM) and the MIC (Aspergillus niger) was 32 µg/mL (≈ 101 µM). For the same compound, the MIC (Penicillium digitum) was 32 µg/mL (≈ 101 µM), the MIC (Penicillium janthinellum) was 63 µg/mL (≈ 199 µM) and the MIC (Rhizoctonia solani) was 8 µg/mL (≈ 25.3 µM). The MIC (Rhizoctonia solani; R. solani, read-out: MIC) was 8 µg/mL (≈ 25.3 µM), the MIC (Penicillium italicum) was 125 µg/mL (≈ 395 µM) and the MIC (Fusarium oxysporum) was 63 µg/mL (≈ 199 µM). The MIC (Aspergillus parasiticus) was 250 µg/mL (≈ 790 µM), the MIC (Penicillium expansum) was 32 µg/mL (≈ 101 µM) and the MIC (Trichoderma harzianum) was 16 µg/mL (≈ 50.6 µM). It also gave an MIC (Trichoderma harzianum; T. harzianum, read-out: MIC) of 16 µg/mL (≈ 50.6 µM), an MIC [14] of 32 µg/mL (≈ 101 µM) and a CC50 at 5 days (in vitro [15]) of 7.23 µg/mL (≈ 22.9 µM). It also gave an MIC [16] of 62.5 µg/mL (≈ 198 µM), an MIC (Cryptococcus neoformans) of 8 µg/mL (≈ 25.3 µM) and an MIC (Aspergillus fumigatus) of 16 µg/mL (≈ 50.6 µM). The MIC [17] was 2 µg/mL (≈ 6.32 µM), the CC50 (in vitro [1]; monkey and human) was over 200 µg/mL and the “LC50 (cytotoxicity)” value (mouse fibroblast cells) was 7.23 µg/mL (≈ 22.9 µM).

Source: patent US9682114B2, “Plant extracts of Ptaeroxylon obliquum nand compounds having antimicrobial and antihelminthic activity” (UNIVERSITY OF PRETORIA, priority 2013, dated 2017)
